The results in this text go back to US11999805B1, “Peptide inhibitors of CRISPR-Cas9” (priority 2020, dated 2024).

Entries after “also recorded” stand apart in the source; their conditions may differ. Like-named read-outs stand apart in the source and are kept apart here. No end group written: not given here.

Test [1] has as its target T1, CjeCas9 (Campylobacter jejuni subsp. jejuni serotype O:2, UniProt Q0P897).
T1 construct: made in house; host or cells: E. coli BL21(star)DE3
Nature of the test: HT FRET-based Cas9 cleavage activity assay, CjeCas9. The test is classed as biochemical, C. jejuni. As to the method: (§1) To evaluate the ability of identified peptides to inhibit other Cas9 variants, SauCas9 and CjeCas9 cleavage assays were used to quantitatively measure changes in activity. […] The inhibition was measured as relative fluorescent value to Cas9 without peptides (% activity) of CjeCas9 (Top), SauCas9 (middle), SpyCas9 (bottom) by FRET assay with the indicated concentration of peptides. Data are the average ±SD of eleven replicate wells from three technical replicates.
(§2) For the 11 original peptides reactions (10 μL) were set up in Cas9 reaction buffer [20 mM Tris-HCl, pH 7.5, 100 mM NaCl, 5 mM MgCl2, 0.1 mM EDTA] containing 50 nM annealed DNA substrate, 1.5 μM sgRNA, and 0.5 μM Cas9 in the wells of a black low volume 384-well plate. The reactions were incubated for 1 hour at ambient temperature with the indicated concentration of peptide; then, 10 μL, of 8 M Guanidine-HCl was added to quench the reaction. The plates were covered with an aluminum seal and incubated at 75° C. for 10 minutes and cooled down to RT before reading.
(§3) The % inhibition was determined by subtracting normalized relative fluorescent value to Cas9 without peptides (% activity) from 100% cleavage activity of CjeCas9, SauCas9, SpyCas9 by FRET assay. Data are the average ±SD of eleven replicate wells from three technical replicates at the indicated concentration of peptides.
(§4) FIGS. 12A, 12B, and 12C show graphs of measurements and fitted curves of concentration dependent inhibition of mutated peptides against Cas9 variants. The inhibition was measured as relative fluorescent value to Cas9 without peptides (% activity) of CjeCas9 (line with squares), SauCas9 (line with diamonds), SpyCas9 (line with triangles) by FRET assay with the indicated concentration of peptides and compared to original peptides (line with circles). Data are the average ±SD of eleven replicate wells from three technical replicates.

Test [2] has as its target T2, SpyCas9 (Streptococcus pyogenes serotype M1, UniProt Q99ZW2). It is filed as biochemical, S. pyogenes. As to conditions: for IC50: read-out: SpyCas9 IC50, FRET cleavage assay, concentration curves, 0.5 μM Cas9, 50 nM DNA substrate. As to the method: (§5) To determine whether synthetic peptides would inhibit Cas9 cleavage activity, 200 peptide sequences were selected for chemical synthesis based on the following criteria: (1) peptides enriched after independent panning on RNP immobilized on both the Monomeric Avidin and NeutrAvidin columns, (2) Higher Boman index (>2.3), the computed potential protein-protein interaction for a given amino-acids sequence (3) a predicted instability index below 50. Theses peptides were screened at 200 μM for inhibition of Cas9 cleavage activity using the recently developed HT FRET-based assay using a dual-quencher substrate with low background and high sensitivity. See Seamon K J, Light Y K, Saada E A, Schoeniger J S, Harmon B. 2018. Versatile High-Throughput Fluorescence Assay for Monitoring Cas9 Activity. Analytical Chemistry 90:6913-6921. This assay specifically measures DNA substrate cleavage, and is able to differentiate between cleavage of a single strand of DNA and cleavage of both DNA strands.
(§6) Reactions (10 μL tubes) were set up in Cas9 reaction buffer (20 mM Tris-HCl, pH 7.5, 100 mM NaCl, 5 mM MgCl2, 0.1 mM EDTA) containing 50 nM annealed DNA substrate, 1.5 μM sgRNA, and 500 nM Cas9 in the wells of a black low volume 384-well plate. The reactions were incubated for 1 hour at ambient temperature; then, 10 μL of 8 M Gdn-HCl was added to quench the reaction before the plates were covered with an aluminum seal and incubated at 80° C. for 10 minutes. The fluorescence was read in a Tecan Infinite M1000 or SPARK plate spectrofluorometer (Tecan).
(§7) The peptides were diluted 2-fold from 200 to 12.5 μM and incubated for 1 hour with 500 nM SpyCas9, gRNA prior to addition of 50 nM FRET DNA substrate for 1 hour. […] Data are the average ±SD of three replicate wells.
as §2, §3, §4

The subject of test [3] is SpyCas9. The test is classed as biochemical, S. pyogenes. As to the method:
as §5, §6, §7, §2, §3, §4

Test [4] addresses T3, SauCas9 (Staphylococcus aureus, UniProt J7RUA5).
T3 construct: made in house; host or cells: E. coli BL21(star)DE3
The test can be described thus: HT FRET-based Cas9 cleavage activity assay, SauCas9. It is filed as biochemical, S. aureus. Here is the method: as §1, §2, §3, §4

For test [5], the target named is T4, SauCas9 (Staphylococcus aureus, UniProt J7RUA5).
T4 construct: made in house; host or cells: E. coli BL21(star)DE3
T4 sequence (J7RUA5 whole entry, looked up): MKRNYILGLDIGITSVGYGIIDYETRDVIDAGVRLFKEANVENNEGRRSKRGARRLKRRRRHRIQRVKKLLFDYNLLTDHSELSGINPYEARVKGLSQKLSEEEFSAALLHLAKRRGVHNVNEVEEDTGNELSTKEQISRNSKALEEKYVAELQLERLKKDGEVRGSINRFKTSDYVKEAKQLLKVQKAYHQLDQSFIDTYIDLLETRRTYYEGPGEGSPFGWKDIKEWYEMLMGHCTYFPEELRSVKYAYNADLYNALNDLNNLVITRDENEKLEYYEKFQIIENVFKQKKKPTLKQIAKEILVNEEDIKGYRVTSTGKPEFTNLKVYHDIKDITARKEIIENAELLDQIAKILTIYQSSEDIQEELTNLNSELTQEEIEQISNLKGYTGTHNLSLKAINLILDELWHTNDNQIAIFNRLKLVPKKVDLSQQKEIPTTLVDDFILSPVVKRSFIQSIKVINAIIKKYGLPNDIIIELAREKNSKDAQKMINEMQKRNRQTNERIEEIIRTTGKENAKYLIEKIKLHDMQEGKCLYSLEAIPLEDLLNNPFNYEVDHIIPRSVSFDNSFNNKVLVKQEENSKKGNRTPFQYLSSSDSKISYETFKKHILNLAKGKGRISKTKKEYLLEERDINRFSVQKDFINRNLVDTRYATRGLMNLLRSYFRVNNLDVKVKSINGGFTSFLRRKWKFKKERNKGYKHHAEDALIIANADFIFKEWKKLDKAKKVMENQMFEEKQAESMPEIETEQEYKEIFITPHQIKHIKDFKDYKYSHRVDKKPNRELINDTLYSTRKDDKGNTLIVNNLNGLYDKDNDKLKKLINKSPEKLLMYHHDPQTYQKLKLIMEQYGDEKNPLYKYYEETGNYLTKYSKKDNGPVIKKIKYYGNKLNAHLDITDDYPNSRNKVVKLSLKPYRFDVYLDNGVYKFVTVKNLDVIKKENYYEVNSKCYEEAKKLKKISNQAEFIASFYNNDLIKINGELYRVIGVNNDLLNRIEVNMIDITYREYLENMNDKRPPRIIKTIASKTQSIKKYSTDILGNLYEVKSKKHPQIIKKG
The test is described as above. The test is classed as biochemical, S. aureus. Here is the method: as §1, §2, §3, §4
The source holds these as a separate data set.

In test [6] the target is T2, SpyCas9. The test can be described thus: Beacon DNA binding assay (Cas9 RNP binding to DNA substrate). Details: species or system S. pyogenes. Here is the method: To determine the mechanism of action of these peptide inhibitors, a binding assay was performed to determine if inhibitors are blocking Cas9 RNP binding to the DNA substrate. The beacon DNA binding assay was adapted and performed as described in Mekler V, Minakhin L, Semenova E, Kuznedelov K, Severinov K. 2016. Kinetics of the CRISPR-Cas9 effector complex assembly and the role of 3′-terminal segment of guide RNA. Nucleic Acids Res 44:2837-45. DNA probes were prepared from unmodified and chromophore-labeled DNA oligonucleotides synthesized by Integrated DNA Technologies. Equimolar amounts of synthetic complementary strands were mixed in a buffer containing 40 mM Tris, pH 7.9, 100 mM NaCl; heated for 2 min at 90° C. and slowly cooled to 20° C. The PAM-distal ends of the beacon target and non-target strands were labeled with fluorescein and Iowa Black® FQ, respectively. Both beacons mimic native target DNA and bind Cas9/sgRNA. The fluorescent signal is increased when Cas9 binds the DNA substrate and a helix forms with the target substrate strand and gRNA resulting in dissociation of oligo 3, leading to increase in fluorescent signal.
Data are the average ±SD of three replicate wells.

T2 sequence (Q99ZW2 whole entry): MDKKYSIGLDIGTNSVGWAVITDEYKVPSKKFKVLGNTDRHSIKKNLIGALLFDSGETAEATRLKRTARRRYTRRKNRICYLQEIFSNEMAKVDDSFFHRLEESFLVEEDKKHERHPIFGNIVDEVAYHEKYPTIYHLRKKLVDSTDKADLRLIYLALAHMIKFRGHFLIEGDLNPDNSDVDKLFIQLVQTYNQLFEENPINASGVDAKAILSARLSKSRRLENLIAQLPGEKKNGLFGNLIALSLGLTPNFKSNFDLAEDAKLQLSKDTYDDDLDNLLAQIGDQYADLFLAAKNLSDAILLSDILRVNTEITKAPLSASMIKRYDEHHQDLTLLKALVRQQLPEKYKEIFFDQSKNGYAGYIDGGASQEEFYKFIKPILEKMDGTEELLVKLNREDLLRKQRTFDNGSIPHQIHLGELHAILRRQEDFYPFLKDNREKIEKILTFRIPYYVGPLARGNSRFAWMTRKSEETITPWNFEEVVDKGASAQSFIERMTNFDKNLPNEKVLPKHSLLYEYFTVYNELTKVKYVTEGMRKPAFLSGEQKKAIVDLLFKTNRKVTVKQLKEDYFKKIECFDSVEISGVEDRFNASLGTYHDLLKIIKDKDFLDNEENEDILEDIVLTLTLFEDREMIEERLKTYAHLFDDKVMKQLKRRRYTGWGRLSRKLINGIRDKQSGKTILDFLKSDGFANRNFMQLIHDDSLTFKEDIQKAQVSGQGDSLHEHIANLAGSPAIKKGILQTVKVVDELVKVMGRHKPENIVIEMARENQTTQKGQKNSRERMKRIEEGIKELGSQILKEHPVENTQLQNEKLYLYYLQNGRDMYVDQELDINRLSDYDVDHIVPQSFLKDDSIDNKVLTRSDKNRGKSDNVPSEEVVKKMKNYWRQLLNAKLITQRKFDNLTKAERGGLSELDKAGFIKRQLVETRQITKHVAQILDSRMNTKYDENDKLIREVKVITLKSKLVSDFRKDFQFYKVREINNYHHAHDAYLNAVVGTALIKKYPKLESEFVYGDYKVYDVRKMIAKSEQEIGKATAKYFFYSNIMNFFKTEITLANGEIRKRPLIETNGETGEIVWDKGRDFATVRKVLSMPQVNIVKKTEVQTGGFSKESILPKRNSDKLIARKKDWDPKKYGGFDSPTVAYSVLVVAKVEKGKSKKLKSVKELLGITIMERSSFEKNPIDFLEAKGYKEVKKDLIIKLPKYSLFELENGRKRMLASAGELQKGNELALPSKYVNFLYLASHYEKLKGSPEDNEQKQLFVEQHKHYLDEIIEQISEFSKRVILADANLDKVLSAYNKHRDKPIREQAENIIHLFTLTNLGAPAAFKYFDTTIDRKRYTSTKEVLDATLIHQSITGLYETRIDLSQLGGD
T1 sequence (Q0P897 whole entry): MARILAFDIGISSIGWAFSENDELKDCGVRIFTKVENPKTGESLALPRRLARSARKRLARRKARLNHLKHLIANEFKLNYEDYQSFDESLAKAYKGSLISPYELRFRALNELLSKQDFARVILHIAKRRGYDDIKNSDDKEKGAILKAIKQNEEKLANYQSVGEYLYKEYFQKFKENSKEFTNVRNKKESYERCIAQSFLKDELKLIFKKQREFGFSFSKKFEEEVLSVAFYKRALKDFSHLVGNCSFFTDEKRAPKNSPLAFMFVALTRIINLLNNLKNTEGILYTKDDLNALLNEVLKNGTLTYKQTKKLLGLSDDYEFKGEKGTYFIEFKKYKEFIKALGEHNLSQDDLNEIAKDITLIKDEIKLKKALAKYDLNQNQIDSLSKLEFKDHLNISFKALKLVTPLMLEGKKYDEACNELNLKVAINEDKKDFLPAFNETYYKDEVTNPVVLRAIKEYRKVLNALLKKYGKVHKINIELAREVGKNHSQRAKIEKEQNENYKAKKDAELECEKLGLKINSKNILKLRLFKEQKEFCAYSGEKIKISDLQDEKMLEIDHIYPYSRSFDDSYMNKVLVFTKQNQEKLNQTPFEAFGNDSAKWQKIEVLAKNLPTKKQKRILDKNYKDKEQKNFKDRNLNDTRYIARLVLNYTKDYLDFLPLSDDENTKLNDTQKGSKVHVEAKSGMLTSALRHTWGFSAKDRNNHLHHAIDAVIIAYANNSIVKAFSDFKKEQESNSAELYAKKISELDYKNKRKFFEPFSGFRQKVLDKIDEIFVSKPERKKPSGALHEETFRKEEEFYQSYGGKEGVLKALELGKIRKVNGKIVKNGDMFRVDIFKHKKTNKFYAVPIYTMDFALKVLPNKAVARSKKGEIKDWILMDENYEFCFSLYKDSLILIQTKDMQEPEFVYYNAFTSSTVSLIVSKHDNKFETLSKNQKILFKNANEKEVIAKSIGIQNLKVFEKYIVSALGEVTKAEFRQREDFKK

On to “NRSHKILLHYNGCHYRLFLRSL [Peptide 90-1-27]”, for which the IC50 (usually the concentration needed to halve the response being measured) in test [1] turned out to be 58.3 µM; in test [2], 28.5 µM; in test [4], 45 µM. Moreover, the “activity against SpyCas9, SauCas9 and CjeCas9 (in words)” value (“activity against SpyCas9” below) in test [3] is listed as “particularly strong activity”.

With “VRVFSAYERLLIRRRRRRRRAG [Peptide 60-1-10]”, the results for the IC50 in test [1], in test [2] and in test [4] were 30.1 µM, 27.2 µM and 27.3 µM, respectively. For the same sequence, in test [3], the “activity against SpyCas9” value was “particularly strong activity”.

As to “KERRRSMMQLSVKSYTLFLGGT [Peptide 82-2-21]”, the IC50 in test [1] came to 51.8 µM; in test [2] it was 31.8 µM; in test [4], 40.9 µM. Also, the “activity against SpyCas9” value in test [3] is “particularly strong activity”.

For VYDFYRMLSHFFLKGPSR [Peptide 91], the “activity of SpyCas9 (% activity, FRET)” value in test [2] (peptide 100 μM) and in test [2] (peptide 200 μM) was “significantly reduced activity” throughout. For the same sequence, the “activity of SauCas9 (% activity, FRET)” value in test [5] (peptide 100 μM) is recorded as “significantly reduced activity”; in test [5] (peptide 200 μM), “significantly reduced activity; also recorded: reduced SauCas9 activity”. Moreover, the “mechanism subset: blocks Cas9 RNP binding to target DNA or other mechanism” value in test [6] is listed as “block Cas9 RNP binding to the target DNA”. Moreover, the “binding of SpyCas9 RNP to DNA substrate (beacon fluorescence)” value in test [6] (peptide 40 μM, SpyCas9 500 nM, DNA substrate 50 nM) is listed as “unaltered; also recorded: did not reduce substrate binding”.
